{"source": "ChEMBL document CHEMBL1140095", "about": "“Design, synthesis, and antibacterial activities of neomycin-lipid conjugates: polycationic lipids with potent gram-positive activity” (2008)", "key": {"[1]": {"test_system": "Staphylococcus aureus", "test": "Antibacterial activity against Staphylococcus aureus ATCC 29213 after 24 hrs by macrobroth dilution method", "type": "functional", "conditions": "ATCC 29213, 24 h"}, "[2]": {"test_system": "Staphylococcus aureus", "test": "Antibacterial activity against methicillin-resistant Staphylococcus aureus ATCC 33592 after 24 hrs by macrobroth dilution method", "type": "functional", "conditions": "ATCC 33592, 24 h"}, "[3]": {"test_system": "Staphylococcus epidermidis", "test": "Antibacterial activity against Staphylococcus epidermidis ATCC 1490 after 24 hrs by macrobroth dilution method", "type": "functional", "conditions": "ATCC 1490, 24 h"}, "[4]": {"test_system": "Staphylococcus epidermidis", "test": "Antibacterial activity against methicillin-resistant Staphylococcus epidermidis ATCC 14990 after 24 hrs by macrobroth dilution method", "type": "functional", "conditions": "ATCC 14990, 24 h"}, "[5]": {"test_system": "Streptococcus pneumoniae", "test": "Antibacterial activity against […] Streptococcus pneumoniae ATCC 49619 after 24 hrs by macrobroth dilution method", "type": "functional", "conditions": "ATCC 49619, 24 h"}, "[6]": {"test_system": "Escherichia coli", "test": "Antibacterial activity against Escherichia coli ATCC 25922 after 24 hrs by macrobroth dilution method", "type": "functional", "conditions": "ATCC 25922, 24 h"}, "[7]": {"test_system": "Escherichia coli", "test": "Antibacterial activity against gentamicin-resistant Escherichia coli ATCC 6174 after 24 hrs by macrobroth dilution method", "type": "functional", "conditions": "ATCC 6174, 24 h"}, "[8]": {"test_system": "Pseudomonas aeruginosa", "test": "Antibacterial activity against Pseudomonas aeruginosa ATCC 27853 after 24 hrs by macrobroth dilution method", "type": "functional", "conditions": "ATCC 27853, 24 h"}, "[9]": {"test_system": "Candida albicans", "test": "Antibacterial activity against Candida albicans", "type": "functional"}, "[10]": {"test_system": "Streptococcus pneumoniae", "test": "Antibacterial activity against Streptococcus pneumoniae ATCC 49619 after 24 hrs by macrobroth dilution method", "conditions": "ATCC 49619, 24 h"}, "[11]": {"test_system": "Staphylococcus aureus", "test": "Antibacterial activity against methicillin-susceptible Staphylococcus aureus after 24 hrs by macrobroth dilution method", "type": "functional"}, "[12]": {"test_system": "Staphylococcus aureus", "test": "Antibacterial activity against Staphylococcus aureus", "type": "functional"}, "[13]": {"test_system": "Staphylococcus aureus", "test": "Antibacterial activity against methicillin-resistant Staphylococcus aureus", "type": "functional"}, "[14]": {"test_system": "Escherichia coli", "test": "Antibacterial activity against Escherichia coli", "type": "functional"}}, "data": [{"smiles": "CCCCCCCCCCCCCCCCCCCC(=O)NC[C@H]1O[C@@H](O[C@@H]2[C@@H](O)[C@H](N)C[C@H](N)[C@H]2O[C@H]2O[C@H](CN)[C@@H](O)[C@H](O)[C@H]2N)[C@H](O)[C@@H]1O[C@H]1O[C@@H](CN)[C@@H](O)[C@H](O)[C@H]1N", "values": [{"measurement": "MIC", "setting": "[1]", "result": 8, "unit": "µg/mL"}, {"measurement": "MIC", "setting": "[2]", "result": 8, "unit": "µg/mL"}, {"measurement": "MIC", "setting": "[3]", "result": 4, "unit": "µg/mL"}, {"measurement": "MIC", "setting": "[4]", "result": 4, "unit": "µg/mL"}, {"measurement": "MIC", "setting": "[5]", "result": 64, "unit": "µg/mL"}, {"measurement": "MIC", "setting": "[6]", "result": 128, "unit": "µg/mL"}, {"measurement": "MIC", "setting": "[7]", "result": 128, "unit": "µg/mL"}, {"measurement": "MIC", "setting": "[8]", "result": 64, "unit": "µg/mL"}, {"measurement": "MIC", "setting": "[9]", "result": "≥ 512", "unit": "µg/mL"}]}, {"smiles": "CCCCCCCCCCCC(=O)NC[C@H]1O[C@@H](O[C@@H]2[C@@H](O)[C@H](N)C[C@H](N)[C@H]2O[C@H]2O[C@H](CN)[C@@H](O)[C@H](O)[C@H]2N)[C@H](O)[C@@H]1O[C@H]1O[C@@H](CN)[C@@H](O)[C@H](O)[C@H]1N", "values": [{"measurement": "MIC", "setting": "[1]", "result": 32, "unit": "µg/mL"}, {"measurement": "MIC", "setting": "[2]", "result": "> 512", "unit": "µg/mL"}, {"measurement": "MIC", "setting": "[3]", "result": 4, "unit": "µg/mL"}, {"measurement": "MIC", "setting": "[4]", "result": 8, "unit": "µg/mL"}, {"measurement": "MIC", "setting": "[6]", "result": 64, "unit": "µg/mL"}, {"measurement": "MIC", "setting": "[7]", "result": 64, "unit": "µg/mL"}, {"measurement": "MIC", "setting": "[8]", "result": 256, "unit": "µg/mL"}, {"measurement": "MIC", "setting": "[9]", "result": "≥ 512", "unit": "µg/mL"}, {"measurement": "MIC", "setting": "[10]", "result": 128, "unit": "µg/mL"}]}, {"smiles": "CCCCCC(=O)NC[C@H]1O[C@@H](O[C@@H]2[C@@H](O)[C@H](N)C[C@H](N)[C@H]2O[C@H]2O[C@H](CN)[C@@H](O)[C@H](O)[C@H]2N)[C@H](O)[C@@H]1O[C@H]1O[C@@H](CN)[C@@H](O)[C@H](O)[C@H]1N", "values": [{"measurement": "MIC", "setting": "[1]", "result": 16, "unit": "µg/mL"}, {"measurement": "MIC", "setting": "[2]", "result": "> 512", "unit": "µg/mL"}, {"measurement": "MIC", "setting": "[3]", "result": 2, "unit": "µg/mL"}, {"measurement": "MIC", "setting": "[4]", "result": 32, "unit": "µg/mL"}, {"measurement": "MIC", "setting": "[6]", "result": 16, "unit": "µg/mL"}, {"measurement": "MIC", "setting": "[7]", "result": 16, "unit": "µg/mL"}, {"measurement": "MIC", "setting": "[8]", "result": "> 512", "unit": "µg/mL"}, {"measurement": "MIC", "setting": "[9]", "result": "≥ 512", "unit": "µg/mL"}, {"measurement": "MIC", "setting": "[10]", "result": 64, "unit": "µg/mL"}]}, {"smiles": "CCCCCCCCCCCC(=O)O", "note": "[DODECANOATE]", "values": [{"measurement": "MIC", "setting": "[2]", "result": 400, "unit": "µg/mL"}, {"measurement": "MIC", "setting": "[11]", "result": 400, "unit": "µg/mL"}]}, {"smiles": "NC[C@@H]1O[C@H](O[C@H]2[C@@H](O)[C@H](O[C@@H]3[C@@H](O)[C@H](N)C[C@H](N)[C@H]3O[C@H]3O[C@H](CN)[C@@H](O)[C@H](O)[C@H]3N)O[C@@H]2CO)[C@H](N)[C@@H](O)[C@@H]1O", "note": "[FRAMYCETIN]", "values": [{"measurement": "MIC", "setting": "[1]", "result": 2, "unit": "µg/mL"}, {"measurement": "MIC", "setting": "[2]", "result": 256, "unit": "µg/mL"}, {"measurement": "MIC", "setting": "[3]", "result": 1, "unit": "µg/mL"}, {"measurement": "MIC", "setting": "[4]", "result": 0.5, "unit": "µg/mL"}, {"measurement": "MIC", "setting": "[5]", "result": 64, "unit": "µg/mL"}, {"measurement": "MIC", "setting": "[6]", "result": 8, "unit": "µg/mL"}, {"measurement": "MIC", "setting": "[7]", "result": 4, "unit": "µg/mL"}, {"measurement": "MIC", "setting": "[8]", "result": 512, "unit": "µg/mL"}, {"measurement": "MIC", "setting": "[9]", "result": "≥ 512", "unit": "µg/mL"}]}, {"smiles": "C[C@@H](CCC(=O)NC[C@H]1O[C@@H](O[C@@H]2[C@@H](O)[C@H](N)C[C@H](N)[C@H]2O[C@H]2O[C@H](CN)[C@@H](O)[C@H](O)[C@H]2N)[C@H](O)[C@@H]1O[C@H]1O[C@@H](CN)[C@@H](O)[C@H](O)[C@H]1N)[C@@H]1CC[C@H]2[C@@H]3[C@@H](O)C[C@H]4C[C@@H](O)CC[C@@]4(C)[C@H]3C[C@@H](O)[C@]21C", "note": "(stereo in doubt)", "values": [{"measurement": "MIC", "setting": "[1]", "result": 16, "unit": "µg/mL"}, {"measurement": "MIC", "setting": "[2]", "result": 128, "unit": "µg/mL"}, {"measurement": "MIC", "setting": "[3]", "result": 8, "unit": "µg/mL"}, {"measurement": "MIC", "setting": "[4]", "result": 16, "unit": "µg/mL"}, {"measurement": "MIC", "setting": "[5]", "result": "> 256", "unit": "µg/mL"}, {"measurement": "MIC", "setting": "[6]", "result": 32, "unit": "µg/mL"}, {"measurement": "MIC", "setting": "[7]", "result": 64, "unit": "µg/mL"}, {"measurement": "MIC", "setting": "[8]", "result": "> 256", "unit": "µg/mL"}, {"measurement": "MIC", "setting": "[9]", "result": "≥ 512", "unit": "µg/mL"}]}, {"smiles": "CCCCCCCCCCCCC/C=C/[C@@H](O)[C@@H](N)CO", "note": "[SPHINGOSINE]", "values": [{"measurement": "MIC", "setting": "[9]", "result": 6, "unit": "µg/mL"}, {"measurement": "MIC", "setting": "[12]", "result": 2, "unit": "µg/mL"}, {"measurement": "MIC", "setting": "[13]", "result": 4, "unit": "µg/mL"}, {"measurement": "MIC", "setting": "[14]", "result": 42, "unit": "µg/mL"}]}, {"smiles": "CCCCCCCCCCCCCCCC(=O)NC[C@H]1O[C@@H](O[C@@H]2[C@@H](O)[C@H](N)C[C@H](N)[C@H]2O[C@H]2O[C@H](CN)[C@@H](O)[C@H](O)[C@H]2N)[C@H](O)[C@@H]1O[C@H]1O[C@@H](CN)[C@@H](O)[C@H](O)[C@H]1N", "values": [{"measurement": "MIC", "setting": "[1]", "result": 4, "unit": "µg/mL"}, {"measurement": "MIC", "setting": "[2]", "result": 8, "unit": "µg/mL"}, {"measurement": "MIC", "setting": "[3]", "result": 2, "unit": "µg/mL"}, {"measurement": "MIC", "setting": "[4]", "result": 2, "unit": "µg/mL"}, {"measurement": "MIC", "setting": "[6]", "result": 32, "unit": "µg/mL"}, {"measurement": "MIC", "setting": "[7]", "result": 64, "unit": "µg/mL"}, {"measurement": "MIC", "setting": "[8]", "result": 128, "unit": "µg/mL"}, {"measurement": "MIC", "setting": "[9]", "result": "≥ 512", "unit": "µg/mL"}, {"measurement": "MIC", "setting": "[10]", "result": 64, "unit": "µg/mL"}]}, {"smiles": "NC[C@@H]1O[C@H](O[C@H]2[C@@H](O)[C@H](O[C@@H]3[C@@H](O)[C@H](N)C[C@H](N)[C@H]3O[C@H]3O[C@H](CN)[C@@H](O)[C@H](O)[C@H]3N)O[C@@H]2CNC(=O)CCCc2ccc3ccc4cccc5ccc2c3c45)[C@H](N)[C@@H](O)[C@@H]1O", "values": [{"measurement": "MIC", "setting": "[1]", "result": 16, "unit": "µg/mL"}, {"measurement": "MIC", "setting": "[2]", "result": 256, "unit": "µg/mL"}, {"measurement": "MIC", "setting": "[3]", "result": 2, "unit": "µg/mL"}, {"measurement": "MIC", "setting": "[4]", "result": 64, "unit": "µg/mL"}, {"measurement": "MIC", "setting": "[5]", "result": "> 512", "unit": "µg/mL"}, {"measurement": "MIC", "setting": "[6]", "result": 32, "unit": "µg/mL"}, {"measurement": "MIC", "setting": "[7]", "result": 64, "unit": "µg/mL"}, {"measurement": "MIC", "setting": "[8]", "result": 256, "unit": "µg/mL"}, {"measurement": "MIC", "setting": "[9]", "result": "≥ 512", "unit": "µg/mL"}]}]}
